Source: publication PMC10056636, “3-Amino-Substituted Analogues of Fusidic Acid as Membrane-Active Antibacterial Compounds” (Membranes, 2023)
Values after ≈ are worked out from the molar mass of the structure shown. Where two headings read alike, the source gives them in different places.

What was measured:
[1] = test system: Staphylococcus aureus (ATCC 43300) (MRSA); experiment: Antibacterial whole-cell growth inhibition (MIC, CO-ADD); format: cell-based; conditions: for primary screening: antimicrobial activity: S. aureus (MRSA), primary screen at 32 μg/mL
Procedure: (§1) Antibacterial screening was carried out by the serial dilution method. All bacteria were cultured in the cation-adjusted Mueller Hinton broth (CAMHB) at 37 °C overnight. A sample of each culture was then diluted 40-fold in fresh broth and incubated at 37 °C for 1.5–3 h. The resultant mid-log phase cultures were diluted (CFU/mL measured by OD600) and then added into each well containing a test compound, giving a cell density of 5 × 10^5 CFU/mL and a total volume of 50 µL. All the plates were covered and incubated at 37 °C for 18 h without shaking.
(§2) Inhibition of bacterial growth was determined by measuring the absorbance at 600 nm (OD600) with a Tecan M1000 Pro monochromator plate reader. […]

in vitro = format: cell-based, human; conditions: human, CC50
Procedure: (§3) HEK293 cells were counted manually in a Neubauer hemocytometer and then plated in 384-well plates containing the test compounds to give a density of 5000 cells per well in a final volume of 50 µL. DMEM supplemented with 10% FBS was used as the growth medium, and the cells were incubated together with the compounds for 20 h at 37 °C in 5% CO2.
(§4) The cytotoxicity (or cell viability) was measured by fluorescence, ex: 560/10 nm, em: 590/10 nm (F560/590), after addition of 5 µL of 25 µg/mL resazurin (2.3 µg/mL final concentration) and after incubation for further 3 h at 37 °C in 5% CO2. The fluorescence intensity was measured using a Tecan M1000 Pro monochromator plate reader with automatic gain control. The CC50 (50% cytotoxicity concentration) values were calculated by curve fitting of inhibition vs. log(concentration) using a sigmoidal dose–response function, with variable fitting values for bottom, top, and slope. In addition, the maximal percentage of cytotoxicity is reported as DMax, indicating any compounds with partial cytotoxicity. The curve fitting was implemented using Pipeline Pilot’s dose–response component. The results were similar to those obtained by other curve-fitting tools, such as GraphPad’s Prism and IDBS’s XlFit. Any value with > indicated samples with no activity (low DMax value) or samples with CC50 values above the maximum tested concentration (higher DMax value).
(§5) In addition, samples were flagged as partially cytotoxic if DMax ≥ 50%, even for CC50 > the maximum tested concentration.
(§6) Tamoxifen served as a positive cytotoxicity standard. Melittin was used as a positive hemolytic standard.

[2] = test system: human embryonic kidney cell line HEK293 (ATCC CRL-1573); experiment: in vitro; format: cell-based; conditions: for CC50: human, 20 h
Procedure: as §3, §4, §5, §6

Hemolysis assay = format: cell-based, human; conditions: for hemolysis at 1 h: human, Dmax (maximal percentage of hemolysis)
Procedure: (§7) Human whole blood was washed three times with 3 volumes of 0.9% NaCl and then resuspended in the same medium to a concentration of 0.5 × 10^8 cells/mL, as determined by manual cell count in a Neubauer hemocytometer. The washed cells were then added to 384-well plates containing the test compounds to a final volume of 50 µL. After shaking on a plate shaker for 10 min, the plates were incubated for 1 h at 37 °C. After incubation, the plates were centrifuged at 1000× g for 10 min to pellet the cells and debris; 25 µL of the supernatant was then transferred to a polystyrene 384-well assay plate.
(§8) Hemolysis was monitored by measuring the supernatant absorbance at […] (OD405). The absorbance was measured using a Tecan M1000 Pro monochromator plate reader. HC10 and HC50 (10% and 50% hemolysis concentrations, respectively) were calculated by curve fitting of inhibition vs. log(concentration) using a sigmoidal dose–response function with variable fitting values for top, bottom, and slope. In addition, the maximal percentage of hemolysis is reported as DMax, indicating any compounds with partial hemolysis. The curve fitting was implemented using Pipeline Pilot’s dose–response component. […] Any value with > indicated sample with no activity (low DMax value) or samples with HC10 values above the maximum tested concentration (higher DMax value).
(§9) In addition, samples were flagged as partially hemolytic if DMax ≥ 50%, even for HC10 > the maximum tested concentration. […]

human red blood cells = experiment: Hemolysis assay; format: cell-based; conditions: human, 1 h
Procedure: as §7, §8, §9

[3] = test system: Cryptococcus neoformans (ATCC 208821); experiment: Antifungal growth inhibition (MIC, CO-ADD); conditions: for MIC: inhibition ≥70%, two replicates per cell; for primary screening: growth inhibition: primary screen at 32 μg/mL
Procedure: Antimicrobial, cytotoxicity, and hemolytic activity screening of the synthesized derivatives was carried out in the CO-ADD (The Community for Antimicrobial Drug Discovery) (http://www.co-add.org, accessed on 24 November 2020) and included analysis for antibacterial properties, cytotoxicity, and hemolytic activity.
The hit confirmation test included five bacteria, Escherichia coli (ATCC 25922), Klebsiella pneumoniae (ATCC 700603), Acinetobacter baumannii (ATCC 19606), Pseudomonas aeruginosa (ATCC 27853), and Staphylococcus aureus (ATCC 43300), and two fungi, Candida albicans (ATCC 90028) and Cryptococcus neoformans (ATCC 208821). […] The compounds were also screened for hemolysis of human red blood cells (human whole blood, strain ARCBS 5400 00150).
Samples were prepared in DMSO and water to a final testing concentration of 32 µg/mL or 20 µM (unless otherwise indicated in the data sheet) and serially diluted twofold up to 8 times. Each sample concentration was prepared in 384-well plates: non-binding surface plate (NBS; Corning 3640) for each bacterial/fungal strain, tissue-culture treated (TC-treated; Corning 3712/3764) black for mammalian cell types and polypropylene 384-well plates (PP; Corning 3657) for hemolysis assays. The final DMSO concentration was maintained to a maximum of 0.5%. All sample preparation procedures were performed using liquid-handling robots. All screening was performed as two replica (n = 2), with both replicas on different assay plates, but from single plating and performed in a single screening experiment (microbial incubation). In addition, two values are used as quality controls for individual plates: Z′-Factor [1 − (3* (sd(NegCtrl) + sd(PosCtrl))/(average(PosCtrl)-average(NegCtrl)))] and standard antibiotic controls at different concentrations (>MIC and <MIC).
Fungi strains were cultured for 3 days on yeast extract-peptone dextrose (YPD) agar at 30 °C. A yeast suspension of 1 × 10^6 to 5 × 10^6 CFU/mL (as determined by OD530) was prepared from five colonies. The suspension was subsequently diluted and added to each well containing a test compound, giving a final cell density of fungi suspension of 2.5 × 10^3 CFU/mL and a total volume of 50 µL. All plates were covered and incubated at 35 °C for 36 h without shaking.
The absorbance was measured using a Biotek Multiflo Synergy HTX plate reader. In both cases, the percentage of growth inhibition was calculated for each well, using the negative control (media only) and positive control (fungi without inhibitors) in the same plate. […] In addition, the maximal percentage of growth inhibition is reported as DMax, indicating any compounds with marginal activity.
Fluconazole was used as a positive fungal inhibitor standard for C. albicans and C. neoformans. […] The quality control (QC) of the assays was performed using Z′-factors calculated from the negative (media only) and positive controls (bacterial, fungal, or cell culture without inhibitor) and the standards.

[4] = test system: Pseudomonas aeruginosa (ATCC 27853); experiment: Antibacterial whole-cell growth inhibition (MIC, CO-ADD); format: cell-based; conditions: P. aeruginosa, two replicates per cell
Procedure: as §1, §2

[5] = test system: Escherichia coli (ATCC 25922); experiment: as above; format: cell-based; conditions: E. coli, two replicates per cell
Procedure: as §1, §2

[6] = test system: Acinetobacter baumannii (ATCC 19606); experiment: as above; format: cell-based; conditions: A. baumannii, two replicates per cell
Procedure: as §1, §2

[7] = test system: Candida albicans (ATCC 90028); experiment: Antifungal growth inhibition (MIC, CO-ADD); format: cell-based
[8] = Staphylococcus aureus, S. aureus (MRSA) ATCC 43300, inhibition ≥80%, two replicates (n = 2), read-out: MIC
[9] = S. aureus (MRSA) ATCC 43300, inhibition ≥80%, two replicates (n = 2)
[10] = Cryptococcus neoformans, ATCC208821, C. neoformans
[11] = Pseudomonas aeruginosa, ATCC27853, read-out: MIC
[12] = Escherichia coli, ATCC25922, read-out: MIC
[13] = Acinetobacter baumannii, ATCC19606, read-out: MIC
[14] = C. albicans, inhibition ≥80%, two replicates per cell
[15] = Candida albicans, ATCC90028, C. albicans, inhibition ≥80%, two replicates per cell, read-out: MIC

Compound | primary screening: antimicrobial activity [1] | MIC [1, 8] [µg/mL] | CC50 at 20 h (in vitro) [µg/mL] | CC50 [2] | hemolysis at 1 h (Hemolysis assay) [%] | Dmax (maximal percentage of hemolysis) (human red blood cells) [%] | HC50 (human red blood cells) | MIC [1, 9] [µg/mL] | other results
CC(=O)O[C@H]1C[C@@]2(C)[C@@H](CC(=O)[C@H]3[C@@]4(C)CCC(=O)[C@@H](C)[C@@H]4CC[C@@]32C)/C1=C(\CCC=C(C)C)C(=O)O [Compound 1] | showed antimicrobial activity | 8 (≈ 15.6 µM) | > 32 | >32 >32 µg/mL | 7.3 | 10.6 | >32 >32 µg/mL | – | –
CC(=O)O[C@H]1C[C@@]2(C)[C@@H](CC(=O)[C@H]3[C@@]4(C)CC[C@H](N5CCCC5)[C@@H](C)[C@@H]4CC[C@@]32C)/C1=C(\CCC=C(C)C)C(=O)O [Compound 7] | showed antimicrobial activity | 8 (≈ 14.1 µM) | > 32 | >32 >32 µg/mL | 2.3 | 2.6 | >32 >32 µg/mL | – | –
CC(=O)O[C@H]1C[C@@]2(C)[C@@H](CC(=O)[C@H]3[C@@]4(C)CC[C@H](NCc5ccccc5)[C@@H](C)[C@@H]4CC[C@@]32C)/C1=C(\CCC=C(C)C)C(=O)O [Compound 9] | showed antimicrobial activity | 8 (≈ 13.2 µM) | > 32 | >32 >32 µg/mL | 3.7 | 2.3 | >32 >32 µg/mL | – | –
COC(=O)/C(CCC=C(C)C)=C1\[C@@H](OC(C)=O)C[C@@]2(C)[C@H]1C[C@@H](O)[C@H]1[C@@]3(C)CC[C@H](NCCN)[C@@H](C)[C@@H]3CC[C@@]12C [Compound 12] | showed antimicrobial activity | 32 (≈ 55.9 µM) | 7.77 (≈ 13.6 µM) | 13.2 µg/mL (≈ 23 µM) | 34.8 | 27.8 | >32 >32 µg/mL | 32 (≈ 55.9 µM) | MIC ([3]; C. neoformans): 16 µg/mL (≈ 27.9 µM); primary screening: growth inhibition ([3]; C. neoformans): inhibited the growth; MIC [3, 10]: 16 µg/mL (≈ 27.9 µM)
CCCCN[C@H]1CC[C@@]2(C)[C@@H](CC[C@@]3(C)[C@H]2[C@H](O)C[C@H]2/C(=C(\CCC=C(C)C)C(=O)OC)[C@@H](OC(C)=O)C[C@@]23C)[C@@H]1C [Compound 14] | showed antimicrobial activity | 32 (≈ 54.6 µM) | 26 (≈ 44.4 µM) | 23.8 µg/mL (≈ 40.6 µM) | 3.4 | 3.6 | >32 >32 µg/mL | 32 (≈ 54.6 µM) | –
COC(=O)/C(CCC=C(C)C)=C1\[C@@H](OC(C)=O)C[C@@]2(C)[C@H]1C[C@@H](O)[C@H]1[C@@]3(C)CC[C@H](NCc4ccccc4)[C@@H](C)[C@@H]3CC[C@@]12C [Compound 18] | showed antimicrobial activity | 16 (≈ 25.8 µM) | 17.8 (≈ 28.7 µM) | 17.5 µg/mL (≈ 28.2 µM) | – | – | >32 >32 µg/mL | 16 (≈ 25.8 µM) | MIC ([3]; C. neoformans): 32 µg/mL (≈ 51.6 µM); primary screening: growth inhibition ([3]; C. neoformans): inhibited the growth; MIC [3, 10]: 32 µg/mL (≈ 51.6 µM)
CC(=O)O[C@H]1C[C@@]2(C)[C@@H](C[C@@H](O)[C@H]3[C@@]4(C)CC[C@H](NCCCNCCCCN)[C@@H](C)[C@@H]4CC[C@@]32C)/C1=C(\CCC=C(C)C)C(=O)O [Compound 19] | – | – | > 32 | >32 >32 µg/mL | 5.5 | 5.3 | >32 >32 µg/mL | 32 (≈ 49.7 µM) | MIC [4]: >32 >32 µg/mL; MIC [4, 11]: > 32 µg/mL; MIC [5]: >32 >32 µg/mL; MIC [5, 12]: > 32 µg/mL; MIC [6]: >32 >32 µg/mL; MIC [6, 13]: > 32 µg/mL; MIC [7, 14]: >32 >32 µg/mL; MIC [7, 15]: > 32 µg/mL
CC(=O)O[C@H]1C[C@@]2(C)[C@@H](C[C@@H](O)[C@H]3[C@@]4(C)CC[C@H](NCCCNCCCCNCCCN)[C@@H](C)[C@@H]4CC[C@@]32C)/C1=C(\CCC=C(C)C)C(=O)O [Compound 21] | – | 2 to 8 (≈ 2.85 to 11.4 µM) | 24.2 (≈ 34.5 µM) | > 32 µg/mL | 8.7 | 6.4 | >32 >32 µg/mL | – | MIC [4]: 32 µg/mL (≈ 45.6 µM); MIC [4, 11]: 32 µg/mL (≈ 45.6 µM); MIC [5]: 32 µg/mL (≈ 45.6 µM); MIC [5, 12]: 32 µg/mL (≈ 45.6 µM); MIC [6]: 32 µg/mL (≈ 45.6 µM); MIC [6, 13]: 32 µg/mL (≈ 45.6 µM); MIC [7, 14]: 32 µg/mL (≈ 45.6 µM); MIC [7, 15]: 32 µg/mL (≈ 45.6 µM)
OC(Cn1cncn1)(Cn1cncn1)c1ccc(F)cc1F [Fluconazole, reference compound] | – | – | – | – | – | – | – | – | MIC ([7]; Candida albicans, ATCC90028): 0.125 µg/mL (≈ 0.408 µM); MIC [3, 10]: 8 µg/mL (≈ 26.1 µM)
CC[C@H](C)[C@H](NC(=O)CN)C(=O)NCC(=O)N[C@@H](C)C(=O)N[C@H](C(=O)N[C@@H](CC(C)C)C(=O)N[C@@H](CCCCN)C(=O)N[C@H](C(=O)N[C@@H](CC(C)C)C(=O)N[C@H](C(=O)N[C@H](C(=O)NCC(=O)N[C@@H](CC(C)C)C(=O)N1CCC[C@H]1C(=O)N[C@@H](C)C(=O)N[C@@H](CC(C)C)C(=O)N[C@H](C(=O)N[C@@H](CO)C(=O)N[C@@H](Cc1c[nH]c2ccccc12)C(=O)N[C@H](C(=O)N[C@@H](CCCCN)C(=O)N[C@@H](CCCNC(=N)N)C(=O)N[C@@H](CCCCN)C(=O)N[C@@H](CCCNC(=N)N)C(=O)N[C@@H](CCC(N)=O)C(=O)N[C@@H](CCC(N)=O)C(N)=O)[C@@H](C)CC)[C@@H](C)CC)[C@@H](C)O)[C@@H](C)O)C(C)C)C(C)C [Melittin, reference compound] | – | – | – | – | – | – | – | – | hemolysis (Hemolysis assay; human erythrocytes, two replicates per cell, read-out: Dmax (maximal percentage of hemolysis)): 50%
CC/C(=C(\c1ccccc1)c1ccc(OCCN(C)C)cc1)c1ccccc1 [Tamoxifen, reference compound] | – | – | 9 (≈ 24.2 µM) | – | – | – | – | – | Dmax (maximal percentage of cytotoxicity) [2]: 50%
CN[C@H](CC(C)C)C(=O)N[C@H]1C(=O)N[C@@H](CC(N)=O)C(=O)N[C@H]2C(=O)N[C@H]3C(=O)N[C@H](C(=O)N[C@H](C(=O)O)c4cc(O)cc(O)c4-c4cc3ccc4O)[C@H](O)c3ccc(c(Cl)c3)Oc3cc2cc(c3O[C@@H]2O[C@H](CO)[C@@H](O)[C@H](O)[C@H]2O[C@H]2C[C@](C)(N)[C@H](O)[C@H](C)O2)Oc2ccc(cc2Cl)[C@H]1O [Vancomycin, reference compound] | – | – | – | – | – | – | – | – | MIC ([1]; Staphylococcus aureus): 1 µg/mL (≈ 0.69 µM)
Colistin [reference compound] | – | – | – | – | – | – | – | – | MIC [4]: 0.25 µg/mL; MIC [5]: 0.125 µg/mL; MIC [6]: 0.25 µg/mL
